Results: US5877202A, “Indole derivatives useful to treat estrogen-related neoplasms and disorders” (priority 1996, dated 1999)

Columns and labels:
[1] = biological target: T1, MCF-7 estrogen receptor (Homo sapiens, UniProt P03372); assay: Competitive binding assay, Relative Binding Affinities on binding of estradiol to MCF-7 estrogen receptor
T1 construct: estrogen receptor extracted from MCF-7 human breast tumor cells; endogenous in cells; host or cells: MCF-7 human breast cancer cells (nuclear extract, cytosol or whole cell extract)
T1 sequence (P03372 1-595): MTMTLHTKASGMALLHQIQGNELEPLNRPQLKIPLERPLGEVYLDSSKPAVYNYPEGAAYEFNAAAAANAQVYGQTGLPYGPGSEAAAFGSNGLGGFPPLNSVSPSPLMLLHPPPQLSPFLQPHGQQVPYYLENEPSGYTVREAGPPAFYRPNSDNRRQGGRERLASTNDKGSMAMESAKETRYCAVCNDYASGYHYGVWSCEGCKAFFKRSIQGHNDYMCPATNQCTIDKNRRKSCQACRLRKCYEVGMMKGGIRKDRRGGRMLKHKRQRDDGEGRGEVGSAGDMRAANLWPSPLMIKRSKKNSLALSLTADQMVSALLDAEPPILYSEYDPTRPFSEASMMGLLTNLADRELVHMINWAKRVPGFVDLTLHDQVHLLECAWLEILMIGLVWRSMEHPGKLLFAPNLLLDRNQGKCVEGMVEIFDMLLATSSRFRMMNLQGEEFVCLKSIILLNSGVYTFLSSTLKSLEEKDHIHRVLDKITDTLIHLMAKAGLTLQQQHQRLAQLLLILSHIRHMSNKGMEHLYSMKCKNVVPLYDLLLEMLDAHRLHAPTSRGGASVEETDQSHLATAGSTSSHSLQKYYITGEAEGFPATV
Method: Briefly, RBAs are determined from competitive binding assays with several concentrations of estradiol (E2) with and without test compound. After 16-18 hours of incubation at 4 degrees C., unbound [^3 H] E2 is separated from ER-bound [^3 H] E2. The IC50 is determined and the RBA is calculated as: […]

[2] = biological target: T2, estrogen receptor binding to an estrogen response element (Homo sapiens, UniProt P03372); assay: Inhibition of estrogen receptor binding to an estrogen response element in DNA mobility shift assays; assay type: biochemical, human (nuclear extract of MCF-7 human breast cancer cells)
T2 construct: estrogen receptor extracted from MCF-7 human breast tumor cells; endogenous in cells; host or cells: MCF-7 human breast cancer cells (nuclear extract, cytosol or whole cell extract)
T2 sequence (P03372 1-595): T1 sequence (P03372 1-595)
Method: Monolayers of MCF-7 human breast cancer cells are rinsed once with HBSS and scraped off culture dishes into 15 ml conical tubes with 5 ml HBSS. The cells are sedimented by centrifugation at 250×g for five minutes, suspended in 1 ml HBSS and sedimented by centrifugation at 2000 rpm in a tabletop centrifuge for five minutes in a 1.5 ml microfuge tube. Two PCV of a solution of a lysis buffer (25 mM HEPES, pH 7.8, 50 mM KCl, 0.5% Nonidet P 40, 2 mM dithiothreitol, 0.2 mM phenylmethylsulfonyl fluoride, 0.05 mg/ml leupeptin, 0.05 mg/ml aprotinin, 0.0025 mg/ml pepstatin, 0.005 mg/ml antipain) are added and cells are kept on ice for 15 minutes. Lysed cells are centrifuged for 3 minutes at 10,000×g, supernatant decanted, and kept as the cytosol fraction. Pellets are suspended in two PCV of extraction buffer (25 mM HEPES, pH 7.8, 500 mM KCl, 10% glycerol, 2 mM dithiothreitol and the above protease inhibitors), mixed for 20 minutes by inversion at 4 degrees C. and centrifuged at 10,000×g for 20 minutes. The supernatant is decanted and saved as nuclear extract. Both the nuclear extract and the cytosol are dialyzed for two hours against dialysis buffer (25 mM HEPES, pH 7.8, 50 mM KCl, 10% glycerol, 2 mM dithiothreitol and the above protease inhibitors). Nuclear and cytosol fractions are stored frozen at -80 degrees C. until used for mobility shift assays or determination of estrogen receptor content.
Briefly, to each reaction tube was added 0.01 mg nuclear extract, 2 μg poly dIdC, 50 mM NaCl, 1 mM dithiothreitol and 10 mM Tris, pH 7.5 in a total volume of 0.01 ml and the mixture was kept at room temperature for 10 minutes. A ^32 P-labelled estrogen response element [ERE]

[3] = system: MCF-7 human breast tumor cells; assay: Inhibition of growth of MCF-7 human breast tumor cells; assay type: cell-based; details: MCF7, MCF-7 cells, medium with 0.001 mg/ml insulin
[4] = system: tamoxifen-resistant LY-2 cells; assay: Inhibition of growth of tamoxifen-resistant LY-2 cells; assay type: cell-based; details: medium with 0.001 mg/ml insulin
[5] = system: estrogen receptor mRNA; assay: Reduction of estrogen receptor mRNA levels in treated MCF-7 human breast tumor cells; assay type: cell-based;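 as to Estrogen Receptor mRNA band intensity: Phosphoimager intensity of radioactive mRNA bands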
Method: (§1) After treatment with 30 μM drug for 24 hr, total RNA is isolated according to the guanidinium isothiocyanate method using an RNA preparation kit from 5 Prime-3 Prime, Inc., following the manufacturer's instructions. The RNA is separated by formaldehyde gel electrophoresis and transferred to a nylon membrane.

[6] = system: GAPDH mRNA; assay: GAPDH mRNA levels in treated MCF-7 human breast tumor cells (positive control probe); assay type: cell-based; details: 30 μM, 24 hr;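 also: Phosphoimager intensity of radioactive mRNA bands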
Method: as §1

[7] = system: MCF-7 human breast tumor cells; assay: Clonigenic assay for MCF-7 human breast tumor cells; assay type: cell-based; details: for Colonies ± S.D.: 24 hours treatment, grown 22 days
Method: MCF-7 cells (10^7) are added to 100 mm tissue culture dishes, allowed to adhere for 24 hours and then treated with either MDL 101,906 or ICI 164,384 for 24 hours. The cells are removed from the dishes with trypsin/EDTA, and washed twice by centrifugation. The cells were counted and 500 cells from each treatment group are added to triplicate wells of 6-well culture dishes. The cells are grown for 22 days. Colonies 1 mm diameter or greater are counted.

[8] = read-out: integrated volume of shifted ERE oligo as percentage of control, given as % inhibition

SMILES: CCCCN(C)C(=O)CCCCCCCNC(=O)Cc1c(C)n(C(=O)c2ccc(Cl)cc2)c2ccc(O)cc12 [MDL 101,906, 8-[[5-Hydroxy-1-(4-chlorobenzoyl)-2-methyl-1H-indol-3-yl]-acetylamino]-octanoic acid methyl-butyl-amide]
- inhibition of estradiol binding to MCF-7 ER ([1]; doses of 100 or 200 nM): did not significantly inhibit
- inhibition of estradiol binding to MCF-7 ER ([1]; typically, at doses of 100 or 200 nM): less than 10%
- IC50 [2]: 8.5 µM
- inhibition at 2 µM [2, 8]: 81%
- inhibition at 5 µM [2, 8]: 76%
- inhibition at 10 µM [2, 8]: 46%
- inhibition at 20 µM [2, 8]: 38%
- IC50 [3]: 3.8 µM
- IC50 [4]: 4.7 µM
- ER/GAPDH mean ([5]; 30 μM, 24 hr, mean of replicates 1 and 2): 0.53
- ER/GAPDH ([5]; 30 μM, 24 hr, replicate 1): 0.98
- Estrogen Receptor mRNA band intensity ([5]; 30 μM, 24 hr, replicate 1): 5,142
- ER/GAPDH ([5]; 30 μM, 24 hr, replicate 2): 0.38
- Estrogen Receptor mRNA band intensity ([5]; 30 μM, 24 hr, replicate 2): 1,916
- activity at 30 µM ([5]; Homo sapiens, MCF7, 24 h, read-out: ER/GAPDH % Control): 18%
- GAPDH mRNA band intensity ([6]; replicate 1): 5,227
- GAPDH mRNA band intensity ([6]; replicate 2): 5,077
- Colonies ± S.D. ([7]; 10 μM): 30 ± 10
- Colonies ± S.D. ([7]; 20 μM): 27 ± 5
- Colonies ± S.D. ([7]; 50 μM): 12 ± 2
- activity at 10 µM ([7]; Homo sapiens, MCF7, 528 h, 10 μM, read-out: Colonies, % Control): 91%
- activity at 20 µM ([7]; Homo sapiens, MCF7, 528 h, 20 μM, read-out: Colonies, % Control): 82%
- activity at 50 µM ([7]; Homo sapiens, MCF7, 528 h, 50 μM, read-out: Colonies, % Control): 36%
